Strand notation (5' to 3'): a small letter for the sugar, then the base; units joined by * are phosphorothioate-linked, units joined directly phosphodiester-linked; [ ] holds rarer units or linkages, { } end groups; capitals alone tell only the bases. d = 2'-deoxy (DNA); m = 2'-O-methyl; f = 2'-fluoro
Key:
[1] = test system: human EPAS1 (Hif2α) cDNA in psiCHECK2 (Renilla luciferase/EPAS1 fusion mRNA) in Hep3B cells; test: Efficacy screen of Hif2α RNAi triggers in vitro, dual-luciferase reporter assay (1 nM and 0.1 nM); type: cell-based; details: Hep3B cells co-transfected with EPAS1-psiCHECK2, Renilla luciferase normalized to firefly luciferase
Summary of the method: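 Knockdown read by dual-luciferase assay: Renilla signal from the Renilla/EPAS1 fusion transcript divided by firefly luciferase expressed from the same plasmid. Triggers (modified canonical siRNAs, 1 nM or 0.1 nM) were co-transfected with 25 ng reporter plasmid per well into human hepatocellular carcinoma Hep3B cells.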

[2] = test system: human (tumor) Hif2α (EPAS1) mRNA; test: Hif2α knockdown in orthotopic RCC tumor bearing mice, single injection of RNAi trigger-delivery polymer conjugate, RT-qPCR (Table 7); type: in vivo; details: RNAi trigger 80 μg, polymer 126 400 μg; single tail vein injection; relative to isotonic glucose
Procedure: A pCR3.1 expression vector expressing the reporter gene secreted alkaline phosphatase (SEAP) under the CMV promoter was prepared by directional cloning of the SEAP coding sequence PCR amplified from Clontech's pSEAP2-basic vector. Convenient restriction sites were added onto primers used to amplify the SEAP coding sequence for cloning into the pCR3.1 vector (Invitrogen). The resultant construct pCR3-SEAP was used to create a SEAP-expressing A498 ccRCC cell line. Briefly, pCR3-SEAP plasmid was transfected into A498 ccRCC cells by electroporation following manufacturer's recommendation. Stable transfectants were selected by G418 resistance. Selected A498-SEAP clones were evaluated for SEAP expression and integration stability.
Female athymic nude mice were anesthetized with ˜3% isoflourane and placed in the right lateral decubitus position. A small, 0.5-1 cm, longitudinally abdominal incision in the left flank was made. Using a moist cotton swab, the left kidney was lifted out of the peritoneum and gently stabilized. Just before injection, a 1.0 ml syringe was filled with the cell/Matrigel mixture and a 27 gauge needle catheter was attached to the syringe tip. The filled syringe was then attached to a syringe pump (Harvard Apparatus, model PHD2000) and primed to remove air. The tip of a 27-gauge needle catheter attached to a syringe was inserted just below the renal capsule near the caudal pole and the tip of the needle was then carefully advanced cranially along the capsule 3-4 mm. A 10 μl aliquot of 2:1 (vol:vol) cell/matrigel mixture containing about 300,000 cells was slowly injected into the kidney parenchyma using a syringe pump. The needle was left in the kidney for 15-20 seconds to ensure the injection was complete. The needle was then removed from the kidney and a cotton swab was placed over the injection site for 30 seconds to prevent leakage of the cells or bleeding. The kidney was then gently placed back into the abdomen and the abdominal wall was closed. Serum was collected every 7-14 days after implantation to monitor tumor growth using a commercial SEAP assay kit. For most studies, tumor mice were used 5-6 weeks after implantation, when tumor measurements were typically around 4-8 mm.
RGD targeted HiF2α-RNAi trigger delivery conjugates. Delivery polymers were modified using RGD-PEG-HyNic, RGD-PEG-ACit-PNP, or RDG-PEG-FCitFP-TFP and PEG-dipeptide modifying agents. The indicated amount of polymer 126 or 100A polymer was modified with 8×PEG12-ACit-PABC-PNP/0.5× aldehyde-PEG24-FCit-PABC-PNP (with RGD mimic #1-PEG-HyNic using protocol #1) and the indicated amount of the indicated Hif2α RNAi trigger. Polymer 064 was modified according to protocol 7. Kidney RCC tumor-bearing mice were generated as described and treated with a single tail vein injection of isotonic glucose (G1) or the indicated Hif2α RNAi trigger-delivery polymer conjugate. Mice were euthanized at the indicated time after injection and total RNA was prepared from kidney tumor using Trizol reagent following manufacturer's recommendation. Relative HiF2α mRNA levels were determined by RT-qPCR as described below and compared to mice treated with delivery buffer (isotonic glucose) only.
In preparation for quantitative PCR, total RNA was isolated from tissue samples homogenized in TriReagent (Molecular Research Center, Cincinnati, Ohio) following the manufacturer's protocol. Approximately 500 ng RNA was reverse-transcribed using the High Capacity cDNA Reverse Transcription Kit (Life Technologies). For human (tumor) Hif2α (EPAS1) expression, pre-manufactured TaqMan gene expression assays for human Hif2α (Catalog #4331182) and CycA (PPIA) Catalog #: 4326316E) were used in biplex reactions in triplicate using TaqMan Gene Expression Master Mix (Life Technologies) or VeriQuest Probe Master Mix (Affymetrix). […]

2412 (sense fUmCfCmUfAmCfUmGfAmCfAmAfCmAfUmUfAmUfAdT; antisense dTfAmUfAmAfUmGfUmUfGmUfCmAfGmUfAmGfGmAdT*dT; siRNA) [compound 2412]
Relative Rluc-Hif2α ([1]; 0.1 nM RNAi trigger): 0.515 ± 0.037 | Relative Rluc-Hif2α ([1]; 1 nM RNAi trigger): 0.291 ± 0.014

2413 (sense fUmAfUmAfAmCfUmGfUmAfUmGfGmGfAmGfCmUfAdT; antisense dTfAmGfCmUfCmCfCmAfUmAfCmAfGmUfUmAfUmAdT*dT; siRNA) [compound 2413]
Relative Rluc-Hif2α ([1]; 0.1 nM RNAi trigger): 0.675 ± 0.104 | Relative Rluc-Hif2α ([1]; 1 nM RNAi trigger): 0.317 ± 0.055

2414 (sense fUmAfAmCfUmGfUmAfUmGfGmGfAmGfCmUfUmAfAdT; antisense dTfUmAfAmGfCmUfCmCfCmAfUmAfCmAfGmUfUmAdT*dT; siRNA) [compound 2414]
Relative Rluc-Hif2α ([1]; 0.1 nM RNAi trigger): 0.422 ± 0.070 | Relative Rluc-Hif2α ([1]; 1 nM RNAi trigger): 0.167 ± 0.038

2415 (sense fUmGfUmAfUmGfGmGfAmGfCmUfUmAfAmCfUmUfAdT; antisense dTfAmAfGmUfUmAfAmGfCmUfCmCfCmAfUmAfCmAdT*dT; siRNA) [compound 2415]
Relative Rluc-Hif2α ([1]; 0.1 nM RNAi trigger): 0.180 ± 0.097 | Relative Rluc-Hif2α ([1]; 1 nM RNAi trigger): 0.119 ± 0.015

2416 (sense fUmUfGmAfCmAfCmUfGmGfUmAfUmCfUmUfAmUfAdT; antisense dTfAmUfAmAfGmAfUmAfCmCfAmGfUmGfUmCfAmAdT*dT; siRNA) [compound 2416]
Relative Rluc-Hif2α ([1]; 0.1 nM RNAi trigger): 0.247 ± 0.031 | Relative Rluc-Hif2α ([1]; 1 nM RNAi trigger): 0.166 ± 0.031

2417 (sense fAmAfGmUfAmUfUmCfUmGfAmUfCmCfUmAfCmCfAdT; antisense dTfGmGfUmAfGmGfAmUfCmAfGmAfAmUfAmCfUmUdT*dT; siRNA) [compound 2417]
Relative Rluc-Hif2α ([1]; 0.1 nM RNAi trigger): 0.295 ± 0.057 | Relative Rluc-Hif2α ([1]; 1 nM RNAi trigger): 0.253 ± 0.037

AD01020 (antisense TGUAAAACAAUUGUGUACUTT; sense AGUACACAAUUGUUUUACAT; Hif2alpha RNAi agent antisense strand; modified_base 2,4,8,10,12,14,16,18 /mod_base = “2′-deoxy-2′-fluoro corresponding nucleoside”; modified_base 3,5,7,9,11,13,15,17,19 /mod_base = “2′-O-methyl corresponding nucleoside”; modified_base 6 /mod_base = “2′-3′ seco corresponding nucleotide”; modified_base 21 /mod_base = “5′-phosphorothioate corresponding nucleotide”; Hif2alpha RNAi agent sense strand; modified_base 1,3,5,7,9,11,13,15,17,19 /mod_base = “2′-deoxy-2′-fluoro corresponding nucleoside”; modified_base 2,4,6,8,10,12,14,16,18 /mod_base = “2′-O-methyl corresponding nucleoside”; modified_b)
Relative Expression day 4 (Hif2α mRNA in kidney tumor) [2]: 0.94

AD01021 (antisense TGUAAAACAAUUGUGUACUTT; sense AGUACACAAUUGUUUUACAT; Hif2alpha RNAi agent antisense strand; modified_base 2,4,6,8,10,12,14,16,18 /mod_base = “2′-deoxy-2′-fluoro corresponding nucleoside”; modified_base 3,5,9,11,13,15,17,19 /mod_base = “2′-O-methyl corresponding nucleoside”; modified_base 7 /mod_base = “2′-3′ seco corresponding nucleotide”; modified_base 21 /mod_base = “5′-phosphorothioate corresponding nucleotide”; Hif2alpha RNAi agent sense strand; modified_base 1,3,5,7,9,11,13,15,17,19 /mod_base = “2′-deoxy-2′-fluoro corresponding nucleoside”; modified_base 2,4,6,8,10,12,14,16,18 /mod_base = “2′-O-methyl corresponding nucleoside”; modified_b)
Relative Expression day 4 (Hif2α mRNA in kidney tumor) [2]: 0.90

AD01022 (antisense TGUAAAACAAUUGUGUACUTT; sense AGUACACAAUUGUUUUACAT; Hif2alpha RNAi agent antisense strand; modified_base 2,4,6,8,10,12,14,16,18 /mod_base = “2′-deoxy-2′-fluoro corresponding nucleoside”; modified_base 3,5,7,9,11,13,15,17,19 /mod_base = “2′-O-methyl corresponding nucleoside”; modified_base 21 /mod_base = “5′-phosphorothioate corresponding nucleotide”; Hif2alpha RNAi agent sense strand; modified_base 1,3,5,7,9,11,13,15,17,19 /mod_base = “2′-deoxy-2′-fluoro corresponding nucleoside”; modified_base 2,4,6,8,10,12,14,16,18 /mod_base = “2′-O-methyl corresponding nucleoside”; modified_base 20 /mod_base = “3′-3′-linked nucleotide”; modified_base 1 /mo)
Relative Expression day 4 (Hif2α mRNA in kidney tumor) [2]: 0.53

AD01023 (antisense TCUAGCAACAAAACCUUAATT; sense UUAAGGUUUUGUUGCUAGAT; Hif2alpha RNAi agent antisense strand; modified_base 2,4,8,10,12,14,16,18 /mod_base = “2′-deoxy-2′-fluoro corresponding nucleoside”; modified_base 3,5,7,9,11,13,15,17,19 /mod_base = “2′-O-methyl corresponding nucleoside”; modified_base 6 /mod_base = “2′-3′ seco corresponding nucleotide”; modified_base 21 /mod_base = “5′-phosphorothioate corresponding nucleotide”; Hif2alpha RNAi agent sense strand; modified_base 1,3,5,7,9,11,13,15,17,19 /mod_base = “2′-deoxy-2′-fluoro corresponding nucleoside”; modified_base 2,4,6,8,10,12,14,16,18 /mod_base = “2′-O-methyl corresponding nucleoside”; modified_b)
Relative Expression day 4 (Hif2α mRNA in kidney tumor) [2]: 0.93

AD01024 (antisense TCUAGCAACAAAACCUUAATT; sense UUAAGGUUUUGUUGCUAGAT; Hif2alpha RNAi agent antisense strand; modified_base 2,4,6,8,10,12,14,16,18 /mod_base = “2′-deoxy-2′-fluoro corresponding nucleoside”; modified_base 3,5,9,11,13,15,17,19 /mod_base = “2′-O-methyl corresponding nucleoside”; modified_base 7 /mod_base = “2′-3′ seco corresponding nucleotide”; modified_base 21 /mod_base = “5′-phosphorothioate corresponding nucleotide”; Hif2alpha RNAi agent sense strand; modified_base 1,3,5,7,9,11,13,15,17,19 /mod_base = “2′-deoxy-2′-fluoro corresponding nucleoside”; modified_base 2,4,6,8,10,12,14,16,18 /mod_base = “2′-O-methyl corresponding nucleoside”; modified_b)
Relative Expression day 4 (Hif2α mRNA in kidney tumor) [2]: 0.51
